The structures appear in SMILES notation. Entries after “also recorded” stand apart in the source; their conditions may differ.

Assay [1] relates to secretion of hTM5 in LS-180 cells. The experiment in a line: Secretion of hTM5 by 35S-methionine-labeled LS-180 cells (chase with drugs, immunoprecipitation of culture medium, SDS-PAGE-fluorography, densitometry of 31 kDa band). The note with it: PMA 10 μM; for effect of inhibitors of secretion on the secretion of hTM5 (in words): LC-1 immunoprecipitation (FIG. 7D), monensin 10 μM, methylamine 10 mM added during the chase; for effect on the secretion of hTM5 (in words): 7E12H12 and LC-1 immunoprecipitations (FIGS. 7B and 7C); for effect on the secretion of hTM5 (in words) / stimulation of the secretion of hTM5 (31 kDa band, densitometry) compared to only DMSO treatment: A23187 2 μM, 2 h chase; for stimulation of the secretion of hTM5 (31 kDa band, densitometry) compared to only DMSO treatment: LS-180 culture medium. It is filed as cell-based, human. On the procedure:
(§1) A) Culture supernatant of LS-180 cells, labeled with […] (100 μCi/ml) for 16 h and chased for 2 h incubated with various drugs, was immunoprecipitated and analyzed by 3–12% SDS-PAGE-fluorography. For untreated cells, 10 μl/ml of DMSO was added during the chase. Immunoprecipitation was performed using 7E12H12 (lanes 1–4) or LC-1 (lanes 5–8) mAbs. Lanes 1 and 5 show the immunoprecipitation profile of the culture supernatant from untreated cells. Note the presence of a 31 kDa protein in lanes 1 and 5. The effect of secretagogues was examined by addition of 2 μM A23187 (lanes 2 and 7) or 10 μM PMA (lanes 3 and 6) during the chase. To examine the combined effect, A23187 (2 μM) and PMA (10 μM) were added together (lanes 4 and 8, respectively). B and C) For quantitative determination, a densitometric analysis of the 31 kDa band, coimmunoprecipitated with CEP (lanes 1–4) or hTM5 (lane 5–8) was performed with a 1 square millimeter window using a BioRad 670 densitometer after overnight exposure of the gel. Histograms B and C represent lanes 1–4 and 5–8 respectively. D) Effect of inhibitors of secretion on the secretion of hTM5. The inhibitors were added during the chase and the culture medium was immunoprecipitated with LC-1 mAb. Lane-1: PMA (10 μM), Lane-2: DMSO only, Lane-3: monensin (10 μM), and Lane-4: methylamine (10 mM) and analyzed by 3–12% gradient SDS-PAGE-fluorography.
To examine the possible association of hTM5 with the colon epithelium-specific protein (CEP), reactive with 7E12H12 monoclonal antibody, we adopted the protocols for radiolabeling, chase and drug treatment used in the study of regulated and unregulated secretion of glycoproteins from colon cancer cells (McCool DJ., et al., Biochem J. 1995; 312: 125–33; and Brion C., et al., J. Biol. Chem. 1992; 267: 1477–83). LS-180 cells were labeled with ^35S-methionine by treatment with methionine-free medium supplemented with 5% dialyzed fetal bovine serum and ^35S-methionine (100 μCi/ml) for 16 hours. Labeling was terminated by washing the cells two times with PBS followed by chase with regular DME for 2 hr. To examine the effects of stimulators and inhibitors of secretion, appropriate drugs were added during the chase period as described (McCool et al., supra; and Brion, et al., supra). Immunoprecipitations were performed on the culture medium as described in Kesari, K V and Geliebter, J. Immunol. Letts 1993: 38: 77–83. After the chase, the culture medium was collected, centrifuged to remove any insoluble material, and mixed with one tenth volume of 10× lysis buffer (500 mM Tris Cl, […], 5% NP40, and protease inhibitor cocktail, Complete, Boehringer-Mannheim, GMBH, Germany). To reduce nonspecific binding, the culture medium, where LS-180 cells were grown, was preabsorbed with protein G agarose (GIBCO-BRL, NY) for 16 h at 4° C. Immunoprecipitation was carried out on ice with purified monoclonal antibodies (5 μg/ml) or ascites (10 μl/ml) for 2 h and the immune complexes were collected on Protein G Agarose. To collect IgM immune complexes, protein G Agarose was pre-coated with affinity purified rabbit anti mouse IgM-μ chain-specific immunoglobulins (2 mg IgG/ml gel). The immune complexes were washed three times by centrifugation with ice cold washing buffer-1 (50 mM Tris Cl, pH 7.4, 150 mM NaCl, 5 mM EDTA, and 0.5% NP40), followed by one wash in buffer-2 (50 mM Tris Cl, pH 7.4, 500 mM MaCl, 5 mM EDTA, and 0.5% NP40), and once with buffer-3 (50 mM Tris Cl, pH 7.4).
To investigate whether the release of hTM5 from LS-180 cells is an active process, the effect of known stimulators (secretagogues), and inhibitors of secretion was examined in the present invention. Two secretagogues, the Ca ^2 ionophore A23187, and phorbol-12-myristate-13-acetate (PMA) have been used to explore the secretory pathways in LS-180 cells (McCool D J et al (1995) supra). […]

Assay [2] has as its system mucin secretion in LS-180 cells. The note with it: McCool D J, et al. (1995); cited from earlier work.
Assay [3] deals with secretion of CEP in LS-180 cells. Briefly: Secretion of CEP by 35S-methionine-labeled LS-180 cells (immunoprecipitation with 7E12H12). Type of assay: cell-based, human. The note with it: 7E12H12 immunoprecipitation (FIG. 7A, lanes 1-4); A23187 2 μM, PMA 10 μM, or both. On the procedure:
as §1, with “gradient SDS-PAGE-fluorography. […]” for “gradient SDS-PAGE-fluorography.”

The subject of a further assay is CEP. Briefly: Cell surface expression of CEP. Type of assay: cell-based.

As for `CN` [methylamine], in assay [1], the “effect of inhibitors of secretion on the secretion of hTM5 (in words)” value (from here on “effect of inhibitors of secretion”) is “inhibited; also recorded: absence of hTM5”.

For the molecule `CNc1ccc2oc(C[C@H]3O[C@@]4(CC[C@H]3C)O[C@H]([C@H](C)C(=O)c3ccc[nH]3)[C@H](C)C[C@H]4C)nc2c1C(=O)O` [A23187], the “effect on mucin secretion in LS-180 cells” value in assay [2] is given as “stimulate”. For the same molecule, in assay [1], the “effect on the secretion of hTM5 (in words)” value is listed as “increased”. Moreover, the “stimulation of the secretion of hTM5 (31 kDa band, densitometry) compared to only DMSO treatment” value in assay [1] (7E12H12 immunoprecipitation (FIG. 7B)) came out at 4.5 fold; in assay [1] (LC-1 immunoprecipitation (FIG. 7C)), 7.8 fold. Also, the “effect on secretion of CEP (in words)” value in assay [3] is “unaffected”.

For the molecule `CC[C@@]1([C@@H]2O[C@@H]([C@H]3O[C@@](O)(CO)[C@H](C)C[C@@H]3C)C[C@@H]2C)CC[C@H]([C@]2(C)CC[C@]3(C[C@H](O)[C@@H](C)[C@@H]([C@@H](C)[C@@H](OC)[C@H](C)C(=O)O)O3)O2)O1` [monensin], in assay [1], the “effect of inhibitors of secretion” value is “inhibited; also recorded: absence of hTM5”. Further, the “cell surface expression of CEP, sensitivity to drug” value in the assay on CEP is reported as “sensitive”.

As for `CCCCCCCCCCCCCC(=O)O[C@@H]1[C@@H](C)[C@@]2(O)[C@@H](C=C(CO)C[C@]3(O)C(=O)C(C)=C[C@@H]23)[C@@H]2C(C)(C)[C@]12OC(C)=O` [PMA, phorbol-12-myristate-13-acetate], the “effect on mucin secretion in LS-180 cells” value in assay [2] was “stimulate”. In assay [1], the “effect on the secretion of hTM5 (in words)” value is “almost totally inhibited” and the “effect of inhibitors of secretion” value is recorded as “absence of hTM5”. The “effect on secretion of CEP (in words)” value in assay [3] is given as “unaffected”.

Source of the values: US7122336B2, “Therapeutic and diagnostic methods for ulcerative colitis and associated disorders” (University of Medicine & Dentistry of New Jersey, priority 2000, dated 2006).
